Literature values in patent US5389382A, “Hydrosols of pharmacologically active agents and their pharmaceutical compositions comprising them” (Sandoz Ltd., priority 1986, dated 1995).

Conditions: at room temperature

Cc1ccc2c(-c3ccccc3)nc(=O)n(C(C)C)c2c1 [Proquazone, 1-isopropyl-7-methyl-4-phenyl-2(1H)-quinazolone]
water solubility: below 0.1 g/100 ml
